The source of these data is patent US6300313A, “Means for treating prostate hypertrophy and prostate cancer” (ASTA Medica Aktiengesellschaft, priority 1999, dated 2001).

The structures appear in SMILES notation. Non-standard residues stand in square brackets, D forms with d. Residues, ends and D or L forms follow the SMILES beside them. dPhe(4-Cl) = N[C@H](Cc1ccc(Cl)cc1)C(=O)O; d2Nal = N[C@H](Cc1ccc2ccccc2c1)C(=O)O; dCit = NC(=O)NCCC[C@@H](N)C(=O)O; d3Pal = N[C@H](Cc1cccnc1)C(=O)O

Data set [1] relates to BPH patients. Particulars: 500 μg every 12 hours for 4 weeks, cited from earlier work.
The test system of data set [2] is BPH. In words: Clinical therapy of BPH with Cetrorelix (Example 1). Format: in vivo, patients. Particulars: Example 1 therapy regimen. The protocol: Cetrorelix is administered in a dose of 0.5 mg to 2 mg daily for 4 to 8 weeks for the therapy of BPH. A dose of 5 mg to 30 mg, dispensed once per week or every 10 days also over a time period of 4 to 8 weeks as well as one every two weeks or one injection per month of 20 mg to 60 mg can also decisively improve the clinical symptoms and signs. […] The prostate volume decreases by 20 to 40% during the treatment time of 4 to 8 weeks. […] In addition, at least 30% of the patients achieve an improvement of the urine flow of 6 ml/sec with this therapy. This is almost equivalent to an improvement like that associated with the golden standard operation, and in considerably shorter time. […] These clinical benefits continue for at least 3 to 6 months after therapy. This allows a long-term therapy of BPH with only an intermittent treatment of 2 to max. 4 injection cycles over 4 to 8 weeks.

Data set [3] relates to Prostate carcinoma patients. Particulars: cited from earlier work.

For the compound `CC(=O)N[C@H](Cc1ccc2ccccc2c1)C(=O)N[C@H](Cc1ccc(Cl)cc1)C(=O)N[C@H](Cc1cccnc1)C(=O)N[C@@H](CO)C(=O)N[C@@H](Cc1ccc(O)cc1)C(=O)N[C@H](CCCNC(N)=O)C(=O)N[C@@H](CC(C)C)C(=O)N[C@@H](CCCNC(=N)N)C(=O)N1CCC[C@H]1C(=O)N[C@H](C)C(N)=O` [Cetrorelix] (Ac-[d2Nal][dPhe(4-Cl)][d3Pal]SY[dCit]LRP[dA]-NH2), the “symptoms of dysuria and prostate volume” value in data set [1] was “distinct decrease”. In addition, the “testosterone levels, initially” value in data set [1] (initial phase) is “lowering in testosterone levels to a castration level”. Further, the “testosterone levels in the course of treatment” value in data set [1] (no castration values during the last three weeks) is listed as “fluctuated at subnormal levels”. Besides, in data set [2], the quality of life result was “significant improvements”; the sexual performance result is given as “No limitations in sexual performance are observed”; the testosterone level result is given as “Submaximal decreases of testosterone occur, but these are above those levels associated with castration”. For the same compound, in data set [2] (4 to 8 weeks), the “increase of the peak flow of the urine” value is recorded as “approximately 3 ml/sec” and the “patients achieving an improvement of the urine flow of 6 ml/sec” value is recorded as “at least 30%”. The “testosterone levels, initially” value in data set [3] (500 μg every 12 hours for 6 weeks, initial phase) is “lowering in testosterone levels to a castration level”. Moreover, in data set [3] (end of the 6 weeks of therapy), the “overall condition of the patient” value is “considerable improvement” and the “testosterone values at the end of therapy” value is “castration levels”.
